Experimental data published in patent US12435044B2, “Pyridazinone herbicides and pyridazinone intermediates used to prepare a herbicide” (FMC Corporation, priority 2018, dated 2025).

What was measured:
Type in all cases: in vivo
[1] = test system: galium (catchweed bedstraw, Galium aparine); assay: Test A postemergence greenhouse test
Text: (§1) Seeds of plant species selected from barnyardgrass (Echinochloa crus-galli), kochia (Kochia scoparia), ragweed (common ragweed, Ambrosia elatior), ryegrass, Italian (Lolium multiflorum), foxtail, giant (Setaria faberii), foxtail, green (Setaria viridis) and pigweed (Amaranthus retroflexus) were planted into a blend of loam soil and sand and treated preemergence with a directed soil spray using test chemicals formulated in a non-phytotoxic solvent mixture which included a surfactant.
(§2) At the same time, plants selected from these weed species and also wheat (Triticum aestivum), corn (Zea mays), blackgrass (Alopecurus myosuroides) and galium (catchweed bedstraw, Galium aparine) were planted in pots containing the same blend of loam soil and sand and treated with postemergence applications of test chemicals formulated in the same manner. Plants ranged in height from 2 to 10 cm and were in the one- to two-leaf stage for the postemergence treatment. Treated plants and untreated controls were maintained in a greenhouse for approximately 10 d, after which time all treated plants were compared to untreated controls and visually evaluated for injury. Plant response ratings, summarized in Table A, are based on a 0 to 100 scale where 0 is no effect and 100 is complete control. A dash (-) response means no test result.

[2] = test system: blackgrass (Alopecurus myosuroides); assay: Test A postemergence greenhouse test
Text: as §1, §2

[3] = test system: ragweed (common ragweed, Ambrosia elatior); assay: Test C pre-/postemergence greenhouse test; conditions: scale 0 to 100
How it was run: (§3)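 Test chemicals were formulated in a non-phytotoxic solvent mixture with surfactant and applied preemergence to seeds in silt loam soil or postemergence to plants of 2 to 18 cm in a peat/vermiculite medium. After 13 to 21 d in a greenhouse, response was visually scored from 0 (no effect) to 100 (complete control).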

corn (Zea mays) = assay: Test C pre-/postemergence greenhouse test; conditions: scale 0 to 100
How it was run: as §3

[4] = test system: barnyardgrass (Echinochloa crus-galli); assay: Test C pre-/postemergence greenhouse test; conditions: scale 0 to 100
How it was run: as §3

[5] = test system: waterhemp (common waterhemp, Amaranthus rudis); assay: Test C pre-/postemergence greenhouse test; conditions: scale 0 to 100
How it was run: as §3

[6] = test system: nutsedge, yellow (Cyperus esculentus); assay: Test C pre-/postemergence greenhouse test; conditions: scale 0 to 100
How it was run: as §3

[7] = test system: lambsquarters (Chenopodium album); assay: Test C pre-/postemergence greenhouse test; conditions: scale 0 to 100
How it was run: as §3

kochia (Kochia scoparia) = assay: Test C pre-/postemergence greenhouse test; conditions: scale 0 to 100
How it was run: as §3

[8] = test system: morningglory (Ipomoea coccinea); assay: Test C pre-/postemergence greenhouse test; conditions: scale 0 to 100
How it was run: as §3

[9] = test system: surinam grass (Brachiaria decumbens); assay: Test C pre-/postemergence greenhouse test; conditions: scale 0 to 100
How it was run: as §3

[10] = test system: blackgrass (Alopecurus myosuroides); assay: Test C pre-/postemergence greenhouse test; conditions: scale 0 to 100
How it was run: as §3

For `Cc1ccc2ccc(Cl)cc2c1-c1c(O)c(Cl)nn(C)c1=O` [Cpd. No. 22], the “Plant response rating (0 to 100 scale)” value ([1]; 31 g ai/ha) was 100, the “Plant response rating (0 to 100 scale)” value ([1]; 125 g ai/ha) was 100 and the “Plant response rating (0 to 100 scale)” value ([2]; 31 g ai/ha) was 70. For the same compound, the “Plant response rating (0 to 100 scale)” value ([2]; 125 g ai/ha) was 100, the “Plant response rating, Ragweed” value ([3]; Postemergence, 16 g ai/ha) was 90 and the “Plant response rating, Ragweed” value ([3]; Postemergence, 31 g ai/ha) was 95. The “Plant response rating, Ragweed” value ([3]; Postemergence, 62 g ai/ha) was 100, the “Plant response rating, Ragweed” value ([3]; Postemergence, 125 g ai/ha) was 100 and the “Plant response rating, Ragweed” value ([3]; Preemergence, 31 g ai/ha) was 60. The “Plant response rating, Ragweed” value ([3]; Preemergence, 61 g ai/ha) was 60, the “Plant response rating, Ragweed” value ([3]; Preemergence, 62 g ai/ha) was 90 and the “Plant response rating, Ragweed” value ([3]; Preemergence, 125 g ai/ha) was 100. For the same compound, the “Plant response rating, Corn” value (corn (Zea mays); Postemergence, 16 g ai/ha) was 0, the “Plant response rating, Corn” value (corn (Zea mays); Postemergence, 31 g ai/ha) was 20 and the “Plant response rating, Corn” value (corn (Zea mays); Postemergence, 62 g ai/ha) was 35. The “Plant response rating, Corn” value (corn (Zea mays); Postemergence, 125 g ai/ha) was 25, the “Plant response rating, Corn” value (corn (Zea mays); Preemergence, 31 g ai/ha) was 10 and the “Plant response rating, Corn” value (corn (Zea mays); Preemergence, 61 g ai/ha) was 5. For the same compound, the “Plant response rating, Corn” value (corn (Zea mays); Preemergence, 62 g ai/ha) was 5, the “Plant response rating, Corn” value (corn (Zea mays); Preemergence, 125 g ai/ha) was 30 and the “Plant response rating, Barnyardgrass” value ([4]; Postemergence, 16 g ai/ha) was 85. For the same compound, the “Plant response rating, Barnyardgrass” value ([4]; Postemergence, 31 g ai/ha) was 90, the “Plant response rating, Barnyardgrass” value ([4]; Postemergence, 62 g ai/ha) was 95 and the “Plant response rating, Barnyardgrass” value ([4]; Postemergence, 125 g ai/ha) was 95. The “Plant response rating, Barnyardgrass” value ([4]; Preemergence, 31 g ai/ha) was 65, the “Plant response rating, Barnyardgrass” value ([4]; Preemergence, 61 g ai/ha) was 5 and the “Plant response rating, Barnyardgrass” value ([4]; Preemergence, 62 g ai/ha) was 85. For the same compound, the “Plant response rating, Barnyardgrass” value ([4]; Preemergence, 125 g ai/ha) was 100, the “Plant response rating, Waterhemp” value ([5]; Postemergence, 16 g ai/ha) was 75 and the “Plant response rating, Waterhemp” value ([5]; Postemergence, 31 g ai/ha) was 85. For the same compound, the “Plant response rating, Waterhemp” value ([5]; Postemergence, 62 g ai/ha) was 85, the “Plant response rating, Waterhemp” value ([5]; Postemergence, 125 g ai/ha) was 90 and the “Plant response rating, Waterhemp” value ([5]; Preemergence, 31 g ai/ha) was 85. For the same compound, the “Plant response rating, Waterhemp” value ([5]; Preemergence, 61 g ai/ha) was 70, the “Plant response rating, Waterhemp” value ([5]; Preemergence, 62 g ai/ha) was 95 and the “Plant response rating, Waterhemp” value ([5]; Preemergence, 125 g ai/ha) was 95. For the same compound, the “Plant response rating, Nutsedge, Yellow” value ([6]; Postemergence, 16 g ai/ha) was 10, the “Plant response rating, Nutsedge, Yellow” value ([6]; Postemergence, 31 g ai/ha) was 35 and the “Plant response rating, Nutsedge, Yellow” value ([6]; Postemergence, 62 g ai/ha) was 90. For the same compound, the “Plant response rating, Nutsedge, Yellow” value ([6]; Postemergence, 125 g ai/ha) was 85, the “Plant response rating, Nutsedge, Yellow” value ([6]; Preemergence, 31 g ai/ha) was 50 and the “Plant response rating, Nutsedge, Yellow” value ([6]; Preemergence, 61 g ai/ha) was 25. For the same compound, the “Plant response rating, Nutsedge, Yellow” value ([6]; Preemergence, 62 g ai/ha) was 75, the “Plant response rating, Nutsedge, Yellow” value ([6]; Preemergence, 125 g ai/ha) was 95 and the “Plant response rating, Lambsquarters” value ([7]; Postemergence, 16 g ai/ha) was 80. For the same compound, the “Plant response rating, Lambsquarters” value ([7]; Postemergence, 31 g ai/ha) was 85, the “Plant response rating, Lambsquarters” value ([7]; Postemergence, 62 g ai/ha) was 100 and the “Plant response rating, Lambsquarters” value ([7]; Postemergence, 125 g ai/ha) was 85. For the same compound, the “Plant response rating, Lambsquarters” value ([7]; Preemergence, 31 g ai/ha) was 75, the “Plant response rating, Lambsquarters” value ([7]; Preemergence, 61 g ai/ha) was 70 and the “Plant response rating, Lambsquarters” value ([7]; Preemergence, 62 g ai/ha) was 90. The “Plant response rating, Lambsquarters” value ([7]; Preemergence, 125 g ai/ha) was 100, the “Plant response rating, Kochia” value (kochia (Kochia scoparia); Postemergence, 16 g ai/ha) was 25 and the “Plant response rating, Kochia” value (kochia (Kochia scoparia); Postemergence, 31 g ai/ha) was 35. For the same compound, the “Plant response rating, Kochia” value (kochia (Kochia scoparia); Postemergence, 62 g ai/ha) was 65, the “Plant response rating, Kochia” value (kochia (Kochia scoparia); Postemergence, 125 g ai/ha) was 70 and the “Plant response rating, Kochia” value (kochia (Kochia scoparia); Preemergence, 31 g ai/ha) was 5. The “Plant response rating, Kochia” value (kochia (Kochia scoparia); Preemergence, 61 g ai/ha) was 0, the “Plant response rating, Kochia” value (kochia (Kochia scoparia); Preemergence, 62 g ai/ha) was 80 and the “Plant response rating, Kochia” value (kochia (Kochia scoparia); Preemergence, 125 g ai/ha) was 95. For the same compound, the “Plant response rating, Morningglory” value ([8]; Postemergence, 16 g ai/ha) was 85, the “Plant response rating, Morningglory” value ([8]; Postemergence, 31 g ai/ha) was 100 and the “Plant response rating, Morningglory” value ([8]; Postemergence, 62 g ai/ha) was 100. For the same compound, the “Plant response rating, Morningglory” value ([8]; Postemergence, 125 g ai/ha) was 100, the “Plant response rating, Morningglory” value ([8]; Preemergence, 31 g ai/ha) was 35 and the “Plant response rating, Morningglory” value ([8]; Preemergence, 61 g ai/ha) was 25. The “Plant response rating, Morningglory” value ([8]; Preemergence, 125 g ai/ha) was 85, the “Plant response rating, Surinam Grass” value ([9]; Postemergence, 16 g ai/ha) was 80 and the “Plant response rating, Surinam Grass” value ([9]; Postemergence, 31 g ai/ha) was 85. For the same compound, the “Plant response rating, Surinam Grass” value ([9]; Postemergence, 62 g ai/ha) was 95, the “Plant response rating, Surinam Grass” value ([9]; Postemergence, 125 g ai/ha) was 95 and the “Plant response rating, Surinam Grass” value ([9]; Preemergence, 31 g ai/ha) was 90. The “Plant response rating, Surinam Grass” value ([9]; Preemergence, 61 g ai/ha) was 75, the “Plant response rating, Surinam Grass” value ([9]; Preemergence, 62 g ai/ha) was 95 and the “Plant response rating, Surinam Grass” value ([9]; Preemergence, 125 g ai/ha) was 100. The “Plant response rating, Blackgrass” value ([10]; Postemergence, 16 g ai/ha) was 70, the “Plant response rating, Blackgrass” value ([10]; Postemergence, 31 g ai/ha) was 85 and the “Plant response rating, Blackgrass” value ([10]; Postemergence, 62 g ai/ha) was 90. For the same compound, the “Plant response rating, Blackgrass” value ([10]; Postemergence, 125 g ai/ha) was 100, the “Plant response rating, Blackgrass” value ([10]; Preemergence, 31 g ai/ha) was 25 and the “Plant response rating, Blackgrass” value ([10]; Preemergence, 61 g ai/ha) was 5. For the same compound, the “Plant response rating, Blackgrass” value ([10]; Preemergence, 62 g ai/ha) was 30 and the “Plant response rating, Blackgrass” value ([10]; Preemergence, 125 g ai/ha) was 85.
